Laboratory results reported in patent US8440666B2, “Pyridazinone compounds and P2X7 receptor inhibitors” (Nissan Chemical Industries, Ltd., priority 2007, dated 2013).
Structures can show the parent of a compound that is named as a salt.

These compounds were tested against T1, Human P2X7 (hP2X7) receptor (Homo sapiens, UniProt Q99572) (assay: Dye assay: BzATP-induced Yo-Pro-1 uptake in HEK293 cells stably expressing hP2X7). Settings: BzATP 0.1 mM, Yo-Pro-1 2 μM, 30 min pre-treatment, 90 min incubation.
T1 construct: myc-His (from the pcDNA3.1/myc-HisA vector); expressed in transfected cells
T1 sequence (Q99572 1-595): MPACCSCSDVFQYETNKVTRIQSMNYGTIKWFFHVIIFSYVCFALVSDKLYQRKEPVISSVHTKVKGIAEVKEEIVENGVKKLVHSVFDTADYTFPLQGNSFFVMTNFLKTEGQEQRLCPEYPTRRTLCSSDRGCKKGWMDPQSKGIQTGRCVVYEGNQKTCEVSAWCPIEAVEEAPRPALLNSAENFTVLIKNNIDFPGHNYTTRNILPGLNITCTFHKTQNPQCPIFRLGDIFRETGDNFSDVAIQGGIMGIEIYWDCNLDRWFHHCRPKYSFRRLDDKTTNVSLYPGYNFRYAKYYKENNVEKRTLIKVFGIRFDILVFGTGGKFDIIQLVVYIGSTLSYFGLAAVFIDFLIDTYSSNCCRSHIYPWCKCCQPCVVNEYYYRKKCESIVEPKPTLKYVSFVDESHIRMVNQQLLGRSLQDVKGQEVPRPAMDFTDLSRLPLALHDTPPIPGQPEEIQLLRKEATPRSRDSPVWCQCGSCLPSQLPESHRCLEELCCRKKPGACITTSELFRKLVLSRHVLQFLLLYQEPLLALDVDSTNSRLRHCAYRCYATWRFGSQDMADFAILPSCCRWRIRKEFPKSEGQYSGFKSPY
Type: cell-based
Description: Human P2X7 (hP2×7) was cloned from a normal human brain total RNA library by reverse transcription (using SuperScript II (Invitrogen)) and PCR (using KOD-plus-(TOYOBO)). PCR primers were designed according to hP2X7 sequence registered in GENBANK with a putative amino acid sequence consisting of 595 amino acid residues. The PCR fragments were inserted into pcDNA3.1/myc-HisA vector (Invitrogen) and sequenced for confirmation.
HEK293 cells were transfected with hP2×7/pcDNA3.1/myc-HisA by lipofection, and 1 day later, the cells were treated with 1 mg/mL G418, and resistant cells were selected by appropriately dilution. The resistant cells were cloned by reseeding at a low density.
P2X7 receptor antagonists were screened by a dye uptake assay using HEK293 cells stably expressing hP2×7. Cells were plated on a type I collagen-coated black/clear bottom 96-well plate at 20000 cells/well and a day later, treated with varying concentrations of various test compounds for 30 minutes, then treated with a dye (Yo-Pro-1) (final concentration 2 μM) and BzATP (final concentration 0.1 mM) and incubated for 90 minutes. Then, the fluorescence (indicating the BzATP-induced Yo-Pro-1 uptake mediated by the P2X7 receptor) was measured with a microplate reader (excitation wavelength: 485 nm, emission wavelength: 535 nm). The % inhibition rates were calculated and plotted against the logarithms of the concentrations to determine IC50.

Row | IC50 | Structure (SMILES)
1 | 5.6 nM | Cc1cc(C(C)NC(=O)Cn2ncc(N[C@@H]3C[C@@H]4C[C@H]([C@H]3C)C4(C)C)c(Cl)c2=O)c(Cl)nn1 (stereo partly shown) [compound 443]

Same assay, conditions: BzATP (0.1 mM)-induced Yo-Pro-1 uptake, compounds 30 min pre-treatment, 90 min incubation

Row | Structure (SMILES) | IC50
2 | O=C(Cn1ncc(NCC23CC4CC(CC(C4)C2)C3)c(Br)c1=O)NCc1ccncc1 [compound 60] | 71 nM
3 | C[C@@H]1[C@H]2C[C@@H](C[C@H]1Nc1cnn(CC(=O)NCc3ccncn3)c(=O)c1Br)C2(C)C [compound 103] | 14 nM
4 | CC(NC(=O)Cn1ncc(N[C@@H]2C[C@@H]3C[C@H]([C@H]2C)C3(C)C)c(Br)c1=O)c1ccc(Cl)cc1 (stereo partly shown) [compound 197] | 32 nM
5 | CCOc1nn(CC(=O)c2ccc(N(CC)CC)cc2)c(=O)c(Cl)c1N[C@@H]1C[C@@H]2C[C@H]([C@H]1C)C2(C)C [Synthetic Example 140] | 15 nM
6 | C[C@@H]1[C@H]2C[C@@H](C[C@H]1Nc1cnn(CC(=O)NCc3cccnc3)c(=O)c1Br)C2(C)C [compound 12] | 20 nM
7 | C[C@@H]1[C@H]2C[C@@H](C[C@H]1Nc1cnn(CC(=O)NCc3ccnc(Cl)c3)c(=O)c1Br)C2(C)C [compound 99] | 39 nM
8 | CCC(NC(=O)Cn1ncc(NC2C[C@@H]3CC([C@H]2C)C3(C)C)c(OC)c1=O)c1ccncc1 (stereo partly shown) [Synthetic Example 385] | 39 nM
9 | C[C@@H]1[C@H]2C[C@@H](C[C@H]1Nc1cnn(CC(=O)Nc3ccc(N(C)C)cc3)c(=O)c1Br)C2(C)C [compound 94] | 64 nM
10 | C[C@@H]1[C@H]2C[C@@H](C[C@H]1Nc1c(O)nn(CC(=O)NCc3ccncc3)c(=O)c1Cl)C2(C)C [Synthetic Example 390, 2-[5-Chloro-3-hydroxy-6-oxo-4-{[(1R,2R,3R,5S)-2,6,6-trimethylbicyclo[3.1.1]hept-3-yl]amino}pyridazin-1(6H)-yl]-N-(pyridin-4-ylmethyl)acetamide Hydrochloride] | 270 nM
11 | CC1(C)C2CCC1(C)C(Nc1cnn(CC(=O)NCc3ccncc3)c(=O)c1Br)C2 (stereo not shown) [compound 61] | 41 nM
12 | C[C@@H]1[C@H]2C[C@@H](C[C@H]1Nc1cnn(CC(=O)NC(c3ccccc3)c3ccncc3)c(=O)c1Br)C2(C)C (stereo partly shown) [compound 169] | 300 nM
13 | COc1cc(CNC(=O)Cn2ncc(N[C@@H]3C[C@@H]4C[C@H]([C@H]3C)C4(C)C)c(Br)c2=O)ccn1 [compound 104] | 57 nM
14 | C[C@@H]1[C@H]2C[C@@H](C[C@H]1Nc1cnn(CC(=O)NC(C(N)=O)c3ccccc3)c(=O)c1Br)C2(C)C (stereo partly drawn) [Synthetic Example 404, N-(2-Amino-2-oxo-1-phenylethyl)-2-[5-bromo-6-oxo-4-{[(1R,2R,3R,5S)-2,6,6-trimethylbicyclo[3.1.1]hept-3-yl]amino}pyridazin-1(6H)-yl]acetamide] | 47 nM
15 | C[C@@H]1[C@H]2C[C@@H](C[C@H]1Nc1cnn(CC(=O)NCc3cc[n+]([O-])cc3)c(=O)c1Br)C2(C)C [Synthetic Example 158, 4-[(2-{5-Bromo-6-oxo-4-[(1R,2R,3R,5S)-2,6,6-trimethylbicyclo[3.1.1]hept-3-ylamino]pyridazin-1(6H)-yl}acetamido)methyl]pyridine 1-oxide] | 45 nM
16 | O=C(Cn1ncc(NC2C3CC4CC(C3)CC2C4)c(Br)c1=O)NCc1ccncc1 (stereo not shown) [compound 74] | 22 nM
17 | C[C@@H]1[C@H]2C[C@@H](C[C@H]1Nc1cnn(C3(C(=O)NCc4ccncc4)CCC3)c(=O)c1Br)C2(C)C [Synthetic Example 420, 1-[5-Bromo-6-oxo-4-{[(1R,2R,3R,5S)-2,6,6-trimethylbicyclo[3.1.1]hept-3-yl]amino}pyridazin-1(6H)-yl]-N-(pyridin-4-ylmethyl)cyclobutanecarboxamide] | 120 nM
18 | C[C@@H]1[C@H]2C[C@@H](C[C@H]1Nc1cnn(CC(=O)Nc3ccc4c(c3)C(=O)N(C)C4=O)c(=O)c1Br)C2(C)C [compound 88] | 44 nM
19 | COc1cc(OC)nc(Cn2ncc(N[C@@H]3C[C@@H]4C[C@H]([C@H]3C)C4(C)C)c(Br)c2=O)n1 [compound 89] | 35 nM
20 | C[C@@H]1[C@H]2C[C@@H](C[C@H]1Nc1cnn(C(F)C(=O)NCc3ccncc3)c(=O)c1Br)C2(C)C (stereo partly drawn) [Synthetic Example 405, [5-Bromo-6-oxo-4-{[(1R,2R,3R,5S)-2,6,6-trimethylbicyclo[3.1.1]hept-3-yl]amino}pyridazin-1(6H)-yl]-2-fluoro-N-(pyridin-4-ylmethyl)acetamide] | 21 nM
21 | C[C@@H]1[C@H]2C[C@@H](C[C@H]1Nc1cnn(CC(=O)NCc3ccncc3)c(=O)c1C#N)C2(C)C [Synthetic Example 387, 2-[5-Cyano-6-oxo-4-{[(1R,2R,3R,5S)-2,6,6-trimethylbicyclo[3.1.1]hept-3-yl]amino}pyridazin-1(6H)-yl]-N-(pyridin-4-ylmethyl)acetamide] | 37 nM
22 | C[C@@H]1[C@H]2C[C@@H](C[C@H]1Nc1cnn(CC(=O)NCc3ccncc3)c(=O)c1Cl)C2(C)C [compound 135] | 4.2 nM

Continued, values first:

Row | IC50 | Structure (SMILES)
23 | 3.4 nM | CC(NC(=O)Cn1ncc(N[C@@H]2C[C@@H]3C[C@@H](C3(C)C)[C@]2(C)O)c(Cl)c1=O)c1ccnnc1 (stereo partly shown) [compound 364]
24 | 13 nM | CCC(NC(=O)Cn1ncc(NC23CC4CC(CC2C4)C3)c(Br)c1=O)c1ccncc1 (stereo not shown) [compound 335]
25 | 4.3 nM | C[C@@H]1[C@H]2C[C@@H](C[C@H]1Nc1cnn(CC(=O)NCc3ccnc(F)c3)c(=O)c1Br)C2(C)C [compound 222]
26 | 3.2 nM | CC(NC(=O)Cn1ncc(NC2C3CCCC2CCC3)c(Br)c1=O)c1ccnnc1 (stereo not shown) [compound 372]
27 | 38 nM | O=C(Cn1ncc(NC2CCCCCCC2)c(Br)c1=O)NCc1ccncc1 [compound 321]
28 | 68 nM | Cc1cc(NC(=O)Cn2ncc(N[C@@H]3C[C@@H]4C[C@H]([C@H]3C)C4(C)C)c(Cl)c2=O)sn1 [compound 292]
29 | 42 nM | CC(C)CNC(=O)Cn1ncc(N[C@@H]2C[C@@H]3C[C@H]([C@H]2C)C3(C)C)c(Br)c1=O [compound 209]
30 | 30 nM | C[C@@H]1[C@H]2C[C@@H](C[C@H]1Nc1cnn(CC(=O)N[C@H](CO)c3ccccc3)c(=O)c1Cl)C2(C)C [compound 270]
31 | 3 nM | CCC(NC(=O)Cn1ncc(N[C@@H]2C[C@@H]3C[C@H]([C@H]2C)C3(C)C)c(Cl)c1=O)c1ccnnc1 (stereo partly shown) [compound 288]
32 | 27 nM | CCC(NC(=O)Cn1ncc(NC2CCCCCCC2)c(Br)c1=O)c1ccncc1 (stereo not shown) [compound 355]
33 | 4.2 nM | CC(NC(=O)Cn1ncc(NC2CC3CC(C2C)C3(C)C)c(Br)c1=O)c1ccnnc1 (stereo not shown) [compound 220]
34 | 90 nM | C[C@@H]1[C@H]2C[C@@H](C[C@H]1Nc1cnn(CC(=O)NC[C@H]3CCCN3C(=O)OC(C)(C)C)c(=O)c1Br)C2(C)C [compound 201]
35 | 140 nM | CONC(=O)Cn1ncc(N[C@@H]2C[C@@H]3C[C@H]([C@H]2C)C3(C)C)c(Br)c1=O [compound 202]
36 | 18 nM | Cc1cnccc1CNC(=O)Cn1ncc(N[C@@H]2C[C@@H]3C[C@@H](C3(C)C)[C@]2(C)O)c(Cl)c1=O [compound 361]
37 | 160 nM | O=C(Cn1ncc(NC2CCCCCCCCC2)c(Br)c1=O)NCc1ccncc1 [compound 326]
38 | 2.7 nM | CC(NC(=O)Cn1ncc(N[C@@H]2C[C@@H]3C[C@@H](C3(C)C)[C@]2(C)O)c(Cl)c1=O)c1ccnc(F)c1 (stereo partly shown) [compound 365]
39 | 3.9 nM | CC(NC(=O)Cn1ncc(N[C@@H]2C[C@@H]3C[C@H]([C@H]2C)C3(C)C)c(Cl)c1=O)c1ccnc(F)c1 (stereo partly shown) [compound 265]
40 | 2.1 nM | C[C@@H](NC(=O)Cn1ncc(NC2C3CCCC2CCC3)c(Cl)c1=O)c1ccncc1 (stereo partly shown) [compound 369]
41 | 34 nM | CC1(C)[C@@H]2C[C@@H](Nc3cnn(CC(=O)NCc4ccncc4)c(=O)c3Br)[C@@](C)(O)[C@H]1C2 [compound 314]
42 | 6 nM | CC(NC(=O)Cn1ncc(NC2C3CCCC2CCC3)c(Cl)c1=O)c1ccncn1 (stereo not shown) [compound 374]
43 | 3.1 nM | CN(C)c1cnccc1CNC(=O)Cn1ncc(N[C@@H]2C[C@@H]3C[C@@H](C3(C)C)[C@]2(C)O)c(Cl)c1=O [compound 362]
44 | 190 nM | Cc1cncnc1CNC(=O)Cn1ncc(N[C@@H]2C[C@@H]3C[C@H]([C@H]2C)C3(C)C)c(Cl)c1=O [compound 281]
45 | 2.6 nM | C[C@@H](NC(=O)Cn1ncc(NC2C3CC4CC(C3)CC2C4)c(Cl)c1=O)c1ccncc1 (stereo partly shown) [compound 368]
46 | 27 nM | C[C@@H]1[C@H]2C[C@@H](C[C@H]1Nc1cnn(CC(=O)NCc3ccnc(C#N)c3)c(=O)c1Cl)C2(C)C [compound 254]
